Laboratory results from patent US20260240798A1, “SOLID FORMS OF RXFP1 MODULATORS” (ASTRAZENECA AB, priority 2022, published 2026).
pEC50: −log10 of the molar value. ≈ marks a conversion by molar mass, not a printed value. Each block holds one compound with its values, some of them ahead of it.

How the values were obtained:
Human Plasma Protein = Human Plasma Protein Binding (Test B); format: in vitro ADME; conditions: fraction unbound (fu)
Experimental: Human Plasma Protein Binding (Test B)
The assay was conducted according to the Human Plasma Protein Binding Assay described in pages 167-170 of Wernevik, J. et al., “A Fully Integrated Assay Panel for Early Drug Metabolism and Pharmacokinetics Profiling”, Assay and Drug Development Technologies, 2020, 18(4), 157-179. Data are reported in Table 1 as fraction unbound (fu) (% free). Where the assay was run multiple times for the same compound, the arithmetic mean is reported.

[1] = Solubility (pH 7.4) (Test F); format: physicochemical; conditions: pH 7.4, aqueous buffer
Experimental: Solubility (pH 7.4) (Test F)
The assay was conducted according to the Solubility Assay described in pages 164-167 of Wernevik, J. et al., “A Fully Integrated Assay Panel for Early Drug Metabolism and Pharmacokinetics Profiling”, Assay and Drug Development Technologies, 2020, 18(4), 157-179. Where the assay was run multiple times for the same compound, the arithmetic mean is reported.

[2] = Solubility of amorphous Compound (I) in pH 1.2 SGF, turbidimetric method (Test I); format: physicochemical; conditions: 37° C.
Experimental: 10 μL of the stock solution was rapidly injected into 990 μL of stabilizer solution containing 0.2% w/w PVPK30 and 0.2% w/w Pluronic F127 and 0.25 mM SDS aqueous solution under a few seconds of ultrasonic treatment to make a 1 mM amorphous nanosuspension. This formulation is further diluted to 0.25 mM with purified water.
The bulk concentration in equilibrium with amorphous particles is determined at 37° C. by a turbidimetric method (described in Lindfors et. al., Langmuir, 2006, 22(3), 911-916). Small volumes of drug suspension are successively added directly to a fluorescence cuvette containing 2000 μL simulated gastric fluid pH 1.2 (SGF) and are then mixed to give the desired concentrations. The light scattering intensity at 700 nm is recorded at a scattering angle of 90° as a function of total drug concentration. As a light scattering setup, a Perkin-Elmer LS 55 Luminescence Spectrometer is used, setting both the emission and excitation wavelengths to 700 nm. Slit excitation is set to 2.5 nm and slit emission is set to 5 nm. Particles are allowed to dissolve for at least 30 seconds prior to measurements starting. Data are then collected for 1 minute and a mean light scattering intensity is calculated. The solubility examination was performed within 45 min of the formation of the amorphous nanosuspension.
At low concentrations the particles dissolve, while at concentrations above the solubility, the particles remain suspended, leading to an almost linear increase in light scattering intensity as a function of total concentration.

[3] = Solubility of crystalline Form A of Compound (I) in pH 1.2 SGF, shake-flask (Test J); format: physicochemical; conditions: simulated gastric fluid pH 1.2 (SGF), thermodynamic from solid, 37° C., 24 h agitation
Experimental: Crystalline solubility in simulated gastric fluid pH 1.2 (SGF) was measured using a miniaturized shake-flask method (24 h agitation at 37° C.).
The samples were agitated at 37° C. for 24 hours in an Eppendorf shaker, agitation speed 1000 rpm. The samples were then centrifuged at 10000 RPM for 15 minutes, 37° C. Approximately 500 μL of the supernatant was withdrawn with automatic pipette to a new vial and centrifuged again for 15 min at 10000 rpm, 37° C. Then from the second centrifugation, samples were taken with automatic pipette to final dilution. pH was measured in the equilibrated remaining sample solution after the second centrifugation. XRPD was used to confirm that no form change had occurred.

human RXFP1 [4] = target: T1, human RXFP1 (Homo sapiens, UniProt Q9HBX9); assay: Human RXFP1 Phospho-ERK Assay (Test H); format: cell-based; conditions: HEK293s cells stably transfected with human RXFP1; read-out: Test H phospo-ERK assay EC50
T1 construct: expressed in transfected cells; host or cells: HEK293s cells, vector pIRESneo3
T1 sequence (Q9HBX9 1-757): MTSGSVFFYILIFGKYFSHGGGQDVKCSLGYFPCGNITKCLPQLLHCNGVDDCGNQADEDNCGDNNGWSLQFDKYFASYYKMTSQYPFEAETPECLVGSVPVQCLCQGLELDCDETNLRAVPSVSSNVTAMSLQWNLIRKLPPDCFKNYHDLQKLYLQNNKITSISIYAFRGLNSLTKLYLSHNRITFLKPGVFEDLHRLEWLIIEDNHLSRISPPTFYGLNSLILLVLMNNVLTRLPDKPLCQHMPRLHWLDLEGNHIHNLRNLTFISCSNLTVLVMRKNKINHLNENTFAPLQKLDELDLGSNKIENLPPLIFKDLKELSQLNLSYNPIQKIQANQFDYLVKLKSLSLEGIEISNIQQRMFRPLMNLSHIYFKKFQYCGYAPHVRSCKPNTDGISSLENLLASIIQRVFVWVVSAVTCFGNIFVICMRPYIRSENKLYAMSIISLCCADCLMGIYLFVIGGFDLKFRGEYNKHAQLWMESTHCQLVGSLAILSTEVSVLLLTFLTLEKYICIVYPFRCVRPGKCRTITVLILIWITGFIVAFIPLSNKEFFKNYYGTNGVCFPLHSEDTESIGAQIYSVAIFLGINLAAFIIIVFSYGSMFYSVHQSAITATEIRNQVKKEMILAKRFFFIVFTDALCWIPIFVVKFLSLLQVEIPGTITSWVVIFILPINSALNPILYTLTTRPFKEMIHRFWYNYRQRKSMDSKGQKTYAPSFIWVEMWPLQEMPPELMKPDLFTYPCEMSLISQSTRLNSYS
Description: (§1) Cells: HEK293s cells stably transfected with human RXFP1 in pIRESneo3 was employed.

human RXFP1 [5] = target: T1, human RXFP1; assay: Human RXFP1 cGMP Production Assay (Test G); format: cell-based; conditions: HEK293s cells stably transfected with human RXFP1
Experimental: Human RXFP1 cGMP Production Assay (Test G)
To profile compounds for RXFP1 agonist activity with respect to cGMP production, the Green GENIe cGMP Assay (Montana Molecular; catalogue number D800G) was employed. […] Fluorescence is reduced when cGMP is bound to the biosensor.
as §1
• 2. […] Cells and transduction mastermix were mixed in proportions 30 μL cells and 20 μL mastermix for a single well. • 6. […] Plate was incubated in the dark at 37° C., 5% CO2 for 24 h.
• 8. Medium was removed from plates using a Bluewasher (BluCatBio). • 9. 20 μL assay buffer was added with a Multidrop Combi (ThermoFisher). • 10. Plate was incubated in the dark at room temperature for 30 min prior to assaying. • 11. Plates were assayed using a FLIPR Tetra (Molecular Devices): 10 μL compound diluted with assay buffer was added to each well by the FLIPR Tetra and measuring green fluorescence over time for up to 3 h.
After subtraction of background fluorescence (before addition of compounds), area under curve values from 0 to 90 min after compound addition was used for calculation of responses.

[6] = cited from earlier work

Test B Human Plasma Protein Binding (% free) (Human Plasma Protein): 4.3 % free
solubility [1]: > 500 µM
solubility ([2]; simulated gastric fluid pH 1.2 (SGF), simulated gastric fluid, kinetic from dmso stock, amorphous nanosuspension, extrapolation of light scattering to zero intensity): 8 µM (≈ 4.36 µg/mL)
Mean light scattering intensity ([2]; total concentration 1.2 uM): 0.16 a.u.
Mean light scattering intensity ([2]; total concentration 2.5 uM): 0.28 a.u.
Mean light scattering intensity ([2]; total concentration 3.7 uM): 0.33 a.u.
Mean light scattering intensity ([2]; total concentration 6.1 uM): 0.33 a.u.
Mean light scattering intensity ([2]; total concentration 8.5 uM): 1.71 a.u.
Mean light scattering intensity ([2]; total concentration 10.8 uM): 4.94 a.u.
Mean light scattering intensity ([2]; total concentration 13.0 uM): 8.19 a.u.
Mean light scattering intensity ([2]; total concentration 15.3 uM): 11.77 a.u.
Mean light scattering intensity ([2]; total concentration 17.4 uM): 15.33 a.u.
Mean light scattering intensity ([2]; total concentration 19.6 uM): 18.47 a.u.
Compound: COc1cc(F)c(O[C@H]2CC[C@@](C)(C(=O)O)CC2)cc1C(=O)N[C@@H]1[C@H]2CC[C@H](C2)[C@@H]1C(=O)NCC1(C)CCC1 [Compound (I), (1S,4s)-4-(2-fluoro-4-methoxy-5-(((1S,2R,3S,4R)-3-(((1-methylcyclobutyl)methyl)carbamoyl)bicyclo[2.2.1]heptan-2-yl)carbamoyl)phenoxy)-1-methylcyclohexane-1-carboxylic acid]

solubility at 24 h [3]: 0.4 µM (≈ 0.218 µg/mL)
Compound: COc1cc(F)c(O[C@H]2CC[C@@](C)(C(=O)O)CC2)cc1C(=O)N[C@@H]1[C@H]2CC[C@H](C2)[C@@H]1C(=O)NCC1(C)CCC1 [Form A of Compound (I), (1S,4s)-4-(2-Fluoro-4-methoxy-5-(((1S,2R,3S,4R)-3-(((1-methylcyclobutyl)methyl)carbamoyl)bicyclo[2.2.1]heptan-2-yl)carbamoyl)phenoxy)-1-methylcyclohexane-1-carboxylic acid]

pEC50 (human RXFP1 [4]): 10.42
pEC50 (human RXFP1 [5]): 10.07
Compound: relaxin2

Compound: serelaxin
blood pressure drop ([6]; approximately one third of the patients, intravenous): > 40 mm Hg
markers of cardiac, renal and hepatic damage and congestion ([6]; hospitalized patients, continuous intravenous administration): improved
clearance from the patients' circulation ([6]; patients): rapid clearance
